The results in this text go back to ChEMBL document CHEMBL1137718, “Topological descriptors in modeling the agonistic activity of human A3 adenosine receptor ligands: the derivatives of 2-chloro-N(6)-substituted-4'-thioadenosine-5'-uronamide” (Eur J Med Chem, 2009).

By Ki is commonly meant the dissociation constant of the complex between target and ligand, obtained from inhibition or displacement.

The target in the experiment is T1, Adenosine receptor A3 (Homo sapiens, UniProt P0DMS8).
T1 sequence (P0DMS8 whole entry): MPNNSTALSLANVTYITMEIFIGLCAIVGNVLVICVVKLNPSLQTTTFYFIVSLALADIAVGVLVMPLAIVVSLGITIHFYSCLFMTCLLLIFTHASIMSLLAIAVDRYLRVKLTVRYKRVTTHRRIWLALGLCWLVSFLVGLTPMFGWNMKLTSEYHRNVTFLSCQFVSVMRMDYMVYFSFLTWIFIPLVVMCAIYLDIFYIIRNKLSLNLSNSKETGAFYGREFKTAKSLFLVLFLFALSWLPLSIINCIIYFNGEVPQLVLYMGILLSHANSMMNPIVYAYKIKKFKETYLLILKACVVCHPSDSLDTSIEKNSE
Nature of the experiment: Displacement of [125I][…] from human adenosine A3 receptor expressed in CHO cells. The experiment is classed as cell-based.
For the molecule `CNc1nc(Cl)nc2c1ncn2[C@@H]1O[C@H](C(=O)NCc2cccc(F)c2)[C@@H](O)[C@H]1O`, affinity was put at a Ki of 17.4 nM.

As for `Cc1ccccc1CNc1nc(Cl)nc2c1ncn2[C@@H]1O[C@H](C(=O)N2CCC(Cc3ccccc3)CC2)[C@@H](O)[C@H]1O`, the Ki was 49000 nM.

In the case of `O=C(NCCC(c1ccccc1)c1ccccc1)[C@H]1O[C@@H](n2cnc3c(NCc4cccc(I)c4)nc(Cl)nc32)[C@H](O)[C@@H]1O`, the affinity corresponds to a Ki of 347 nM.

On to `O=C([C@H]1S[C@@H](n2cnc3c(NCc4cccc(I)c4)nc(Cl)nc32)[C@H](O)[C@@H]1O)N1CCC(Cc2ccccc2)CC1`, for which affinity was put at a Ki of 871 nM. This Ki lies about 2.5-fold higher than the previous one.

In turn, `O=C(NCCc1ccccc1)[C@H]1O[C@@H](n2cnc3c(NCc4cccc(I)c4)nc(Cl)nc32)[C@H](O)[C@@H]1O` had a Ki of 437 nM.

Take `CCNC(=O)[C@H]1O[C@@H](n2cnc3c(NCc4ccccc4C)nc(Cl)nc32)[C@H](O)[C@@H]1O`: the Ki was 2.51 nM.

`Cc1ccccc1CNc1nc(Cl)nc2c1ncn2[C@@H]1O[C@H](C(=O)NC2CC2)[C@@H](O)[C@H]1O`: the Ki was 27.5 nM.

`Cc1ccccc1CNc1nc(Cl)nc2c1ncn2[C@@H]1O[C@H](C(=O)NCC2CC2)[C@@H](O)[C@H]1O` had a Ki of 29.5 nM.

The molecule `O=C(NC1CCC1)[C@H]1S[C@@H](n2cnc3c(NCc4cccc(I)c4)nc(Cl)nc32)[C@H](O)[C@@H]1O` showed a Ki of 18.2 nM.

For `O=C([C@H]1S[C@@H](n2cnc3c(NCc4cccc(I)c4)nc(Cl)nc32)[C@H](O)[C@@H]1O)N1CCOCC1`, affinity was put at a Ki of 513 nM.

With `Cc1ccccc1CNc1nc(Cl)nc2c1ncn2[C@@H]1O[C@H](C(=O)N2CCOCC2)[C@@H](O)[C@H]1O`, the affinity corresponds to a Ki of 7590 nM.

In the case of `O=C(NCc1cccc(Cl)c1)[C@H]1O[C@@H](n2cnc3c(NCc4cccc(I)c4)nc(Cl)nc32)[C@H](O)[C@@H]1O`, the Ki is 309 nM. Compared with the last molecule, the Ki is about 25-fold lower.

In turn, `CNc1nc(Cl)nc2c1ncn2[C@@H]1O[C@H](C(=O)N(C)C)[C@@H](O)[C@H]1O` had a Ki of 1510 nM.

The molecule `CNc1nc(Cl)nc2c1ncn2[C@@H]1O[C@H](C(=O)N2CCN(c3ccc(F)cc3)CC2)[C@@H](O)[C@H]1O` gave a Ki of 2690 nM.

`CNC(=O)[C@H]1O[C@@H](n2cnc3c(N)nc(Cl)nc32)[C@H](O)[C@@H]1O` gave a Ki of 0.398 nM. This Ki lies about 6800-fold lower than the previous one.

In turn, `CNc1nc(Cl)nc2c1ncn2[C@@H]1O[C@H](C(=O)NCC2CC2)[C@@H](O)[C@H]1O` gave a Ki of 1.1 nM.

Molecule `CNc1nc(Cl)nc2c1ncn2[C@@H]1O[C@H](C(=O)NCCC(C)C)[C@@H](O)[C@H]1O` gave a Ki of 1.62 nM.

Regarding `CNc1nc(Cl)nc2c1ncn2[C@@H]1O[C@H](C(=O)N2CCOCC2)[C@@H](O)[C@H]1O`, the Ki was 3890 nM. This Ki is about 2400-fold higher than that of the molecule before.

`CNc1nc(Cl)nc2c1ncn2[C@@H]1O[C@H](C(=O)N2CCC(Cc3ccccc3)CC2)[C@@H](O)[C@H]1O` had a Ki of 3470 nM.

`CCNC(=O)[C@H]1S[C@@H](n2cnc3c(NCc4cccc(I)c4)nc(Cl)nc32)[C@H](O)[C@@H]1O` had a Ki of 0.891 nM.

`CC(C)CCNC(=O)[C@H]1O[C@@H](n2cnc3c(NCc4cccc(I)c4)nc(Cl)nc32)[C@H](O)[C@@H]1O` gave a Ki of 41.7 nM. Compared with the last molecule, the Ki is about 47-fold higher.

In the case of `O=C(NC1CC1)[C@H]1S[C@@H](n2cnc3c(NCc4cccc(I)c4)nc(Cl)nc32)[C@H](O)[C@@H]1O`, the Ki is 2.95 nM. Compared with the last molecule, the Ki is about 14-fold lower.

For `O=C(NC1CC1)[C@H]1S[C@@H](n2cnc3c(NC4CC4)nc(Cl)nc32)[C@H](O)[C@@H]1O`, the Ki was 5.62 nM.

Molecule `CNc1nc(Cl)nc2c1ncn2[C@@H]1O[C@H](C(=O)NCCc2cccc(F)c2)[C@@H](O)[C@H]1O` showed a Ki of 85.1 nM.

For the molecule `CNC(=O)[C@H]1O[C@@H](n2cnc3c(NC4CC4)nc(Cl)nc32)[C@H](O)[C@@H]1O`, the Ki is 2.24 nM.

On to `CCNC(=O)[C@H]1O[C@@H](n2cnc3c(NC4CC4)nc(Cl)nc32)[C@H](O)[C@@H]1O`, for which the Ki is 0.676 nM. Compared with the last molecule, the Ki is about 3.3-fold lower.

As to `O=C([C@H]1O[C@@H](n2cnc3c(NC4CC4)nc(Cl)nc32)[C@H](O)[C@@H]1O)N1CCC(Cc2ccccc2)CC1`, the Ki is 3980 nM.

Take `CNC(=O)[C@H]1S[C@@H](n2cnc3c(NC4CCCC4)nc(Cl)nc32)[C@H](O)[C@@H]1O`: the Ki is 4.27 nM.

Regarding `O=C([C@H]1O[C@@H](n2cnc3c(NCc4cccc(I)c4)nc(Cl)nc32)[C@H](O)[C@@H]1O)N1CCN(c2ccc(F)cc2)CC1`, the affinity corresponds to a Ki of 1450 nM.

`O=C(NCc1cccc(C(F)(F)F)c1)[C@H]1O[C@@H](n2cnc3c(NCc4cccc(I)c4)nc(Cl)nc32)[C@H](O)[C@@H]1O` showed a Ki of 355 nM.

`Cc1ccccc1CNc1nc(Cl)nc2c1ncn2[C@@H]1O[C@H](C(=O)N(C)C)[C@@H](O)[C@H]1O` showed a Ki of 631 nM.

In turn, `O=C(NCC1CC1)[C@H]1S[C@@H](n2cnc3c(NCc4cccc(I)c4)nc(Cl)nc32)[C@H](O)[C@@H]1O` had a Ki of 3.63 nM.

Turning to `CNC(=O)[C@H]1O[C@@H](n2cnc3c(NCc4ccccc4C)nc(Cl)nc32)[C@H](O)[C@@H]1O`, the affinity, expressed as Ki, was 2.19 nM. Compared with the last molecule, the Ki is about 1.7-fold lower.

On to `CNc1nc(Cl)nc2c1ncn2[C@@H]1O[C@H](C(=O)NCCC(c2ccccc2)c2ccccc2)[C@@H](O)[C@H]1O`, for which the Ki is 417 nM.

For `CNc1nc(Cl)nc2c1ncn2[C@@H]1O[C@H](C(=O)NC2CC2)[C@@H](O)[C@H]1O`, the affinity, expressed as Ki, was 2.82 nM.

For the molecule `O=C([C@H]1O[C@@H](n2cnc3c(NC4CC4)nc(Cl)nc32)[C@H](O)[C@@H]1O)N1CCOCC1`, the affinity corresponds to a Ki of 4470 nM.
